Data on 4 compounds can be found in patent US20140186364A1, “INHIBITION OF THE NT-3:TRKC BOUND AND ITS APPLICATION TO THE TREATMENT OF CANCER SUCH AS NEUROBLASTOMA” (CENTRE NATIONAL DE LA RECHERCHE SCIENTIFIQUE (CNRS), priority 2008, published 2014).

The target of assay [1] is T1, rat TrkC (Rattus norvegicus, UniProt Q03351).
T1 construct: We first transiently expressed full-length rat TrkC in HEK293T cells; HA; expressed in transfected cells; host or cells: HEK293T or 13.S.24 olfactory neuroblasts
Put plainly: TrkC-induced apoptosis in TrkC-transfected HEK293T or 13.S.24 cells (trypan blue, caspase activity, DNA condensation). In kind it is cell-based. Particulars: for TrkC-induced apoptosis: general caspase inhibitors added after TrkC transfection. The protocol:
(§1) Transient transfections of Human Embryonic Kidney 293T and olfactory neuroblasts 13.S.24 cells were performed as previously described (4), by using Lipofectamine Plus (Invitrogen, Carlsbad, Calif.) according to the manufacturer's instructions. HEK293T and 13.S.24 cells where cultured in DMEM (Invitrogen) with the addition of 0.1% gentamycin for 13.S.24 cells. The recombinant human NT-3 was purchased from PreproTech (Rocky Hill, N.J.) and added to the culture medium 3 and 24 h after transfection. TrkC expression was monitored by Western blot with an anti-C-terminal antibody purchased from Santa Cruz Biotechnology (sc-139; Santa Cruz, Calif.), 24 h after transfection. Plasma membrane localisation of Trk receptors was performed by FACS analysis. Briefly, […] cells were transfected and labeled successively with anti-HA antibody (1/100; Sigma, St. Louis, Mo.) and anti-rabbit PE (1/100; Jackson ImmunoResearch Laboratories, West Grove, Pa.). Detection was done using a FACSCalibur (BD Biosciences, San Jose, Calif.).
Cell death was analyzed using trypan blue staining procedures, as previously described (6). Either the z-VAD-fmk (TEBU-bio, Le Perray en Yvelines Cedex, France; […]) or the BAF [Boc-Asp(Ome) Fluoromethyl Ketone; Sigma-Aldrich; […]] caspase inhibitors were added to the culture medium just after transfection. The extent of cell death is presented as the percentage of trypan blue-positive cells in the different transfected cell populations. Relative caspase activity was determined by fluorescence measurement of DEVDAFC cleavage, as described in (8). Immunostaining using anti-caspase-3 antibody (Cell Signaling) was described in (4). […] For flow cytometric analysis, stained cells were counted using a FACSCalibur (BD Biosciences) and CellQuest analysis software with excitation and emission settings of 488 nm and 525-550 nm (filter FL1), respectively.

Assay [2] has as its system TrkC. Put plainly: TrkC caspase cleavage in TrkC-expressing 13.S.24 cells (immunoblot). In kind it is cell-based, rat. Particulars: 13.S.24 cells expressing TrkC; C-terminal TrkC antibody. As for the experimental part:
(§2) To observe the cleavage of TrkC in 13.S.24, MG132 ([…], Z-Leu-Leu-Leuala, Sigma-Aldrich) was added to the culture medium 2 h before harvesting the cells. Cells were then potterised in the Wang buffer (20 mM Hepes KOH/10 mMKCl/1.5 mM MgC12/1 mM Sodium EDTA/1 mM Sodium EGTA/0.1 mM PMSF/1 mM DTT/[…]). Proteins were then analyzed by Western blot using the anti-TrkC antibody (sc-139; Santa Cruz Biotechnology). To monitor TrkC cleavage in vivo, E10.5 OF1 mouse embryos were dissected with a sharpened tungsten needle to isolate the spinal cord, the somites and DRG precursors which were then semidissociated in DMEM F-12 (Invitrogen). The samples were incubated overnight under agitation at 37° C. in the presence or absence of either NT-3 (PreproTech; 10 ng/ml), or BAF (Sigma-Aldrich; […]), or the NT-3 blocking antibody AF1404 (R&D, Minneapolis, Minn.; 1/100). The samples were then lysed directly in the Laemmli sample buffer and the proteins separated on 12% SDS/PAGE. The filter was probed with the anti-TrkC antibody.

The target of assay [3] is T2, TrkC (Homo sapiens, UniProt Q16288). Briefly: Endogenous TrkC cleavage in CLB-Ge2 cells (western blot). Format: cell-based. On the set-up: endogenous in cells; host or cells: CLB-Ge2 human neuroblastoma cells. As for the experimental part:
8×10^4 cells were cytospun on coverslips and fixed in 4% PFA. The slides were then incubated at room temperature for one hour with an antibody recognizing human NT-3 (1/300, SC-547). After rinsing in Phosphate Buffer Saline, the slides were incubated with an Alexa-488-Donkey anti-Rabbit antibody (Molecular Probes). Nucleus were visualized with Hoechst staining (Sigma). Expression of TrkC constructs and endogenous TrkC cleavage were monitored by western blot with anti-Trk antibody (sc-11; Santa Cruz Biotechnology) and an anti […]-actin (13E5; Cell Signaling) was used as loading control as previously described (36).

Assay [4] has as its target T3, TrkC (Mus musculus, UniProt Q6VNS1).
T3 construct: embryonic mouse dorsal root ganglion (DRG) were semidissociated and maintained overnight; from tissue; host or cells: spinal cord, somites and DRG precursors of E10.5 OF1 mouse embryos, semidissociated
Put plainly: TrkC cleavage in semidissociated embryonic mouse DRG (Western blot). Format: cell-based. Conditions: DRG maintained overnight; NT-3 10 ng/ml. As for the experimental part: as §2
In general terms: A western blot detects proteins with antibodies after separation by electrophoresis.

The target of assay [5] is T2, TrkC. Briefly: Human TrkC-induced cell death in transfected 13.S.24 cells (active caspase-3). In kind it is cell-based. Further details: expressed in transfected cells; host or cells: 13.S.24 olfactory neuroblasts. Particulars: NT-3 10 ng/ml. As for the experimental part:
as §1, with “Detection was done using a FACSCalibur (BD Biosciences, San Jose, Calif.).” left out
Cell death was analyzed using trypan blue staining procedures, as previously described (6). […] Relative caspase activity was determined by fluorescence measurement of DEVDAFC cleavage, as described in (8). […] For flow cytometric analysis, stained cells were counted using a FACSCalibur (BD Biosciences) and CellQuest analysis software with excitation and emission settings of 488 nm and 525-550 nm (filter FL1), respectively.

Residues, ends and D or L forms follow the SMILES beside them. *: point of attachment. Cbz = O=C(OCc1ccccc1)*; CH2F = FC*

T1 sequence (Q03351 32-825 isoform Q03351-2 limits assumed): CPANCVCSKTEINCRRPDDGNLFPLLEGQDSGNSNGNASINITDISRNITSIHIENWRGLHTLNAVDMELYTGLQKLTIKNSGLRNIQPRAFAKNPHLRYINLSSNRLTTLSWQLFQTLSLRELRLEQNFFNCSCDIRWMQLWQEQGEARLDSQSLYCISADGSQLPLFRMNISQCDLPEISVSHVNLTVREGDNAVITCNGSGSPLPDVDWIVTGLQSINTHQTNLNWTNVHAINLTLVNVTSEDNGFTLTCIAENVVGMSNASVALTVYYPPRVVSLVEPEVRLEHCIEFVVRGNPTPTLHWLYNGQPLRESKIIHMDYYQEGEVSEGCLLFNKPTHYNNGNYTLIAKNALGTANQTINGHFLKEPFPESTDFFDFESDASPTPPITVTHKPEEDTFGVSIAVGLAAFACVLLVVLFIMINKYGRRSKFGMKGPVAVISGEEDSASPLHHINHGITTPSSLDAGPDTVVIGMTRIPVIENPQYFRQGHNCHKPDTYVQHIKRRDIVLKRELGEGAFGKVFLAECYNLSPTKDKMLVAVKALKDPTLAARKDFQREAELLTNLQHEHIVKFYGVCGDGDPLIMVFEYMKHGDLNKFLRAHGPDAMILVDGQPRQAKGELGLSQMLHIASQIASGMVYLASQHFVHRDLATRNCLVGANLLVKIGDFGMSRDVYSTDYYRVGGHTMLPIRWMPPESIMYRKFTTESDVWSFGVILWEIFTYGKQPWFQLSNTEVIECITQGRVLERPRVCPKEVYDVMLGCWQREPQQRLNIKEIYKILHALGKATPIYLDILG
T2 sequence (Q16288 32-839): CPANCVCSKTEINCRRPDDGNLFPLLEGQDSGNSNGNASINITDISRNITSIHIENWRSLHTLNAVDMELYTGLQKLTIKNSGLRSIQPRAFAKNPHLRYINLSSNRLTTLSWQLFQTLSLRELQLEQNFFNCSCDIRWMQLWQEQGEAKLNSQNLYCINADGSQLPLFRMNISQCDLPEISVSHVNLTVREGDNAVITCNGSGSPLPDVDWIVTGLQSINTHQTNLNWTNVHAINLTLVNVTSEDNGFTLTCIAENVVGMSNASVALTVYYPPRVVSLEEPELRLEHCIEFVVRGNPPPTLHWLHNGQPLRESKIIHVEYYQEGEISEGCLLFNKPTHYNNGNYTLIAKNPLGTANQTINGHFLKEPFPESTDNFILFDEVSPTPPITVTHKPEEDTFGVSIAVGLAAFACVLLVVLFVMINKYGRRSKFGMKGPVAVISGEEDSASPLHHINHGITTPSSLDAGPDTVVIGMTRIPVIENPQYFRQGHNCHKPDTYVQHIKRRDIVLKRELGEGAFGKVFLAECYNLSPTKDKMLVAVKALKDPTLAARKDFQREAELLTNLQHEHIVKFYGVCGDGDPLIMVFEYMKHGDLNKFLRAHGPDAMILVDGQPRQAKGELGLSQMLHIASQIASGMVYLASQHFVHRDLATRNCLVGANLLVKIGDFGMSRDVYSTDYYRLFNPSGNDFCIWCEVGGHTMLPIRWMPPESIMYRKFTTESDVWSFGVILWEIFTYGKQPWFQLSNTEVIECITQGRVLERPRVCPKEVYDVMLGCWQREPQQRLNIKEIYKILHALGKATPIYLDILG
T3 sequence (Q6VNS1 32-825): as the sequence (Q03351 32-825 isoform Q03351-2 limits assumed) above

As for `COC(=O)CC(NC(=O)OC(C)(C)C)C(=O)CF` (stereo not shown) [BAF, boc-aspartyl(OMe)-fluoromethylketone], the TrkC-induced apoptosis entry in assay [1] was “fully inhibit TrkC-induced apoptosis”. In assay [2], the “TrkC cleavage bands (35 and 20 kDa)” value is “failed to be detected”. For the same compound, the “TrkC caspase cleavage (20 kDa band)” value in assay [3] was “blocked”. Besides, the “20-kDa TrkC fragment” value in assay [4] is recorded as “disappeared”.

With `COC(=O)CC[C@H](NC(=O)[C@H](CC(=O)OC)NC(=O)OCc1ccccc1)C(=O)N[C@H](C(=O)N[C@@H](CC(=O)OC)C(=O)CF)C(C)C` [DEVD-fmk], in assay [2], the “TrkC cleavage bands (35 and 20 kDa)” value is “fail to block caspase-dependent cleavage of TrkC”.

For the compound “NT-3: recombinant human NT-3 purchased from PreproTech; ligand of TrkC”, the “TrkC-mediated cell death (trypan blue exclusion, caspase activity, DNA condensation)” value in assay [1] (rat TrkC-transfected 13.S.24 cells, NT-3 0.5-50 ng/ml) is “inhibited, in a dose-dependent manner”. Further, in assay [5], the “human TrkC-triggered cell death” value was “triggers cell death unless NT-3 is present”. For the same compound, the “20-kDa TrkC fragment” value in assay [4] is “disappeared”.

Turning to `COC(=O)C[C@H](NC(=O)[C@H](C)NC(=O)[C@@H](NC(=O)OCc1ccccc1)C(C)C)C(=O)CF` [zVAD-fmk] (Cbz-Val-Ala-Asp(OMe)-CH2F), the TrkC-induced apoptosis result in assay [1] is reported as “fully inhibit TrkC-induced apoptosis”. Moreover, in assay [2], the “TrkC cleavage bands (35 and 20 kDa)” value is reported as “failed to be detected”.
